Experimental data taken from PubChem BioAssay AID449762 (Southern Research Specialized Biocontainment Screening …, 2010).
Results filed as inconclusive are left out.

Tested on: M. tuberculosis H37Rv growth inhibition, 7H9 media
Test: M. tuberculosis growth inhibition, HTS (AID 449762);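 further: bacterial growth assessed after seven days of incubation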
Settings: for IC90: measured here: IC90 growth inhibition

SMILES | IC50 | IC90
COC(=O)CSc1nnc(CNc2ccc(Cl)cc2)n1-c1ccccc1 | 12.7 µM | 37.4 µM
O=C(CSC1=Nc2ccccc2C2=NC(c3ccccc3)C(=O)N12)NC1CCCCC1 (configuration not stated) | 0.66 µM | 1.29 µM
O=[N+]([O-])c1c(C(Cl)Cl)nn(-c2ccc(Cl)cc2)c1N1CCCCC1 | 15.6 µM | 19.4 µM
NC(=S)N/N=C/c1ccccc1OCCSc1ccc(Cl)cc1 | 45.7 µM | > 100 µM
C=CCn1c(O)c(N=Nc2ccccc2O)c2ccccc21 | 6.1 µM | 24.3 µM
CC1=NOC(=O)/C1=C/c1ccc(-c2ccc(Cl)cc2)o1 | 5.22 µM | 70.3 µM
COC(=O)c1ccc(C(=O)OC)c(NC(=O)CSc2cccc[n+]2[O-])c1 | 2.97 µM | 3.37 µM
Cc1nn(-c2ccccc2)c(Cl)c1/C=C/C(=O)c1ccccc1 | 49.1 µM | 56.7 µM
CN1/C(=C\C(=O)C[n+]2ccc(C(=O)c3ccccc3)cc2)C(C)(C)c2ccccc21 | 7.85 µM | 15.3 µM
CS(=O)(=O)c1nc(-c2ccccc2)cc(C(F)(F)F)n1 | 6.68 µM | 18.7 µM
Nc1cc([N+](=O)[O-])ccc1Nc1ccc(O)cc1 | 30.4 µM | 34 µM
O=C(OCn1nnc2ccccc2c1=O)C1CCCCC1 | 3.56 µM | 7.16 µM
COc1ccc(NC(=O)NC(C)C2CC3CCC2C3)cc1 (configuration not stated) | 23.6 µM | 27.1 µM
O=C(NC(C(=O)N/N=C/c1cccc2ccccc12)c1n[nH]c(=O)c2ccccc12)c1ccccc1 (configuration not stated) | 53.2 µM | > 100 µM
CC(C)(O)C#Cc1ccc(C(=O)Nc2ccc3c(c2)OCO3)s1 | 1.63 µM | > 100 µM
CCOC(=O)c1c(NC(=O)CCl)sc(CN(C)C)c1-c1ccccc1 | 0.92 µM | 4.68 µM
O=C(COc1ccccc1)NNc1nc2ccccc2s1 | 48.4 µM | > 100 µM
COc1ccc(C[C@H](N)C(=O)N[C@H]2[C@@H](O)[C@H](n3cnc4c(N(C)C)ncnc43)O[C@@H]2CO)cc1 | 3.14 µM | 3.54 µM
Nc1ccc(-c2nc3nc(N)nc(N)c3nc2-c2ccc(N)cc2)cc1 | 43 µM | 57.5 µM
C=CCS/C(N)=N\N=C\c1c(O)ccc2ccccc12 | 12.2 µM | 48.6 µM
Cc1ccc2ccc3ccc(C)nc3c2n1 | 0.49 µM | 1.31 µM
COc1ccccc1NC(=O)c1ccc(NC(=O)CSc2nnnn2C)cc1 | 2.89 µM | 13.8 µM
C/C(=C\C(=O)c1ccccc1)Nc1ccc(Cl)c(Br)c1 |  | > 100 µM

SMILES | IC50 | IC90
c1ccc(-n2cnc3cc(NCc4cccs4)ccc32)cc1 | 85.6 µM | 97.2 µM
CCCn1c(N2CCN(Cc3ccc(Cl)cc3)CC2)nc2ccccc21 | 11.3 µM | 23.5 µM
O=C(CSc1nc2ncc(Br)cc2[nH]1)Nc1ccc2c(c1)OCO2 | 6.01 µM | 16.1 µM
CCOC(=O)N1CCN(c2nc(N(c3ccccc3)c3ccccc3)nc(-n3ccnc3)n2)CC1 | 92.7 µM | > 100 µM
CC1(C)CC(=O)C2=C(C1)OC(N)=C([N+](=O)[O-])C2c1ccc(C#N)s1 (configuration not stated) | 62.2 µM | > 100 µM
CCOC(=O)c1nc2sc3c(c2c(=O)[nH]1)CCC(C)C3 (configuration not stated) | 46.7 µM | > 100 µM
O=C(OCn1ncc(Br)c(Br)c1=O)c1ccc(F)cc1 | 1.17 µM | 3.58 µM
Cc1cc(C)n(-c2nc(NCCN(C)C)c3c4c(sc3n2)CCCC4)n1 | 14.6 µM | 18.6 µM
CC(C)OC(=O)c1ccc(NC(=S)NC(=O)c2cncc(Br)c2)cc1 | 52.4 µM | > 100 µM
CCOc1ccc(N2CC(=O)Nc3ccccc3NCC2=O)cc1 | 52.7 µM | 78.2 µM
CN(C(=S)NC(=O)c1ccc(Cl)cc1)C1CCCCC1 | 3.1 µM | 13.7 µM
N#Cc1cccc2c1-c1ccccc1/C2=N/NC(N)=O | 93.9 µM | > 100 µM
Oc1ccccc1/C=N/NC(=S)NC1CC2CC1C1C=CCC21 (configuration not stated) | 11.1 µM | 12.3 µM
O=C(OCc1csc(Nc2ccccc2)n1)c1ccc(Cl)cc1 | 17.1 µM | 45.7 µM
CCc1ccc2nc(N(CCCN(C)C)C(=O)c3ccc(S(=O)(=O)N4CCCc5ccccc54)cc3)sc2c1 | 28.1 µM | 33.9 µM
CN(CCO)c1cc(Sc2nc3ccccc3s2)c2nonc2c1[N+](=O)[O-] | 27 µM | > 100 µM
CN1CCN(C2Cc3ccccc3Sc3cc(C(F)(F)F)ccc32)CC1 (configuration not stated) | 13.5 µM | 15.6 µM
Nc1n[nH]c(C2CC2)c1N=Nc1ccc(Cl)cc1 | 19.3 µM | 41 µM
Cc1cc(C(=O)CCl)c(C)n1-c1cccc([N+](=O)[O-])c1 | < 0.2 µM | 1.54 µM
CCCCCn1c(=O)c2ccccc2n2c(CCl)nnc12 | 0.48 µM | 2.21 µM
CN(C)CCOc1ccc(-c2c(-c3ccsc3)sc3ccccc23)cc1 | 13.2 µM | 15.5 µM
COCCOC(=O)c1ccc(NC(=O)COc2ccc([N+](=O)[O-])cc2)cc1 | 83 µM | > 100 µM
COc1ccccc1NC(=O)Nc1nc(CC(=O)N2CCN(c3ccccc3F)CC2)cs1 | 41.7 µM | > 100 µM

SMILES | IC50 | IC90
CCN(CC)CCNC(=O)c1ccc(NC(=O)c2cn(-c3ccccc3)nc2-c2cccs2)cc1 | 19 µM | 27.1 µM
Cc1cc(-c2cc(-c3ccccc3)on2)nc(NC2CCCC2)n1 | 45.8 µM | 53.9 µM
Cc1ccc(C(c2nnnn2Cc2cccs2)N2CCN(Cc3ccc4c(c3)OCO4)CC2)cc1 (configuration not stated) | 21 µM | 27.9 µM
CC(C)(C)OC(=O)NNc1c2ccccc2nc2ccccc12 | 22.8 µM | 25.7 µM
CC(/C=N/NC(=O)c1cc(-c2ccc3ccccc3c2)n[nH]1)=C\c1ccco1 | 29 µM | 51.2 µM
O=C(CN1CCN(C(=O)COc2cccc(F)c2)CC1)Nc1ccc(Cl)c(C(F)(F)F)c1 | 49 µM | 55.4 µM
COc1cccc(-c2cc3nc4c(c(NCC(C)(C)CN(C)C)n3n2)CCCC4)c1 | 22 µM | 28.2 µM
CC(C)CC[n+]1ccccc1/C=C/c1ccc(N(C)C)cc1 | 5.3 µM | 8.41 µM
CC(C)OC(=O)c1ccc(COC(=O)c2cnccn2)cc1 | 7.68 µM | > 100 µM
Cc1ccc(NN=C2c3ccccc3-c3ccccc32)cc1 | 45.5 µM | > 100 µM
CC(C)c1nnc(NC(=O)CCC(=O)N2CCN(c3ccc(Cl)cc3)CC2)s1 | 11.8 µM | 29.5 µM
CCOC(=O)COc1ccc2c(c1)C(=O)CC(C)(c1cccnc1)O2 (configuration not stated) | 9.2 µM | 18.4 µM
O=C(CCS(=O)(=O)c1ccc(F)cc1)Nc1nc(-c2ccccn2)cs1 | 4.5 µM | 17.1 µM
O=c1cc(N=Nc2ccc(Cl)cc2)[nH]c(=O)[nH]1 | 42 µM | > 100 µM
CCCC(/C=C/c1ccc(OC(C)=O)cc1)=C1/c2ccccc2C(=O)N1c1ccccc1 | 8.07 µM | 16.1 µM
CCN(CC)CCCNc1nc2cc(OC)c(OC)cc2c2nc(-c3ccccc3)nn12 | 4.71 µM | 6 µM
C/C(CC(=O)Nc1ccc(C)c(Cl)c1)=N\NC(=O)Cc1cnc(N)s1 |  | > 100 µM
CCOC(=O)/C(=N/Nc1ccccc1)c1csc(Nc2ccccc2)n1 | 34.6 µM | > 100 µM
CC(C)CNC(=S)NC(=O)c1csc([N+](=O)[O-])c1 | 6.74 µM | 15.1 µM
COC(=O)[C@@H](NC(=O)O[C@@H]1C(=O)c2ccc(OC)cc2O[C@H]1c1cccc(C(F)(F)F)c1)C(C)C | 56.2 µM | > 100 µM
COc1ccc(CN2CCCC(C(=O)c3ccc(SC)cc3)C2)cc1Cn1cccn1 (configuration not stated) | 23.9 µM | 26.6 µM
CC(C)(C)c1ccc(OCCC(=O)OCC(=O)NC(=O)NC2CCCC2)cc1 | 5.45 µM | 8.58 µM
Cc1nc(SCC(=O)NC2CCCCC2)[nH]c(=O)c1C | < 0.2 µM | < 0.2 µM

SMILES | IC50 | IC90
C=C(CCC(=O)c1ccccc1)C(=O)c1ccccc1 | 7.32 µM | 18.7 µM
O=C1NN(c2ccc(Br)cc2)C(=O)/C1=C\c1ccc(O)cc1O | 88.2 µM | > 100 µM
CCCCCCC[N+](CC)(CC)CCCCc1ccc(Cl)cc1 | 24.7 µM | 27.8 µM
CCOC(=O)COc1ccc(C2CC(C)=NN2c2ccccc2)cc1 (configuration not stated) | 2.81 µM | 17.7 µM
C=C(C)C1Cc2c(C)nn(-c3nc(C)cc(C)n3)c2C1 (configuration not stated) | 2.72 µM | 6.74 µM
CCC(=O)Nc1nc2ccccc2n1Cc1ccc(Cl)cc1 | < 0.2 µM | 4.92 µM
CCOc1ccc(NC(=O)CCc2nnc3ccc(N4CCC(C)CC4)nn23)cc1 | 8.75 µM | 15.3 µM
C/C(CC(=O)Nc1ccc(Cl)cc1C(F)(F)F)=N\NC(N)=S | 16 µM | 19.5 µM
CC(C)Cn1c(N2CCN(C(=O)/C=C/c3ccccc3)CC2)nc2ccccc21 | 23.7 µM | 27.2 µM
Cc1ccnc(NC(=O)COc2ccc3c(c2)CCC3)c1 | 40.2 µM | > 100 µM
COc1ccc(C(CCN2CCCCC2)c2c(OC)cc(OC)c3c(-c4ccccc4)cc(=O)oc23)cc1 (configuration not stated) | 15.1 µM | 22.4 µM
Cc1ccc(-c2noc(=O)n2CC(=O)c2ccc(Cl)cc2)cc1 | 44.3 µM | > 100 µM
N#C/C(=C1\CCCN1)c1nc(-c2ccccc2)cs1 |  | > 100 µM
O=C(CSC1=NC(=O)C(c2ccccc2)C(=O)N1)Nc1ccccc1Cl (configuration not stated) | 1.86 µM | 6.58 µM
Cc1ccc(C(=O)N/C(=C/c2ccco2)C(=O)OCN2C(=O)c3ccccc3C2=O)cc1 | 6.83 µM | 49.9 µM
Cc1oc(C(=O)Nc2ccc(O)cc2)cc1COc1ccccc1 | 12.5 µM | 43.6 µM
O=C(Nc1nnc(C2=COCCO2)o1)c1ccc(Cc2ccccc2)cc1 | 3.26 µM | 9.81 µM
CC(=O)N1CCN(c2ccc(Oc3ccc([N+](=O)[O-])c(C(F)(F)F)c3)cc2)CC1 | 7.54 µM | 19.3 µM
CCCCC(CC)CN=C(N)NC(N)=NCCCCCCN=C(N)NC(N)=NCC(CC)CCCC (configuration not stated) | 3.61 µM | 4.76 µM
Cc1ccc(/C(N)=N/OC(=O)N2c3ccccc3Sc3ccccc32)cc1 | 52.4 µM | > 100 µM
O=C(Nc1ccc(-n2cccc2)cc1)C1CC1 | 1.84 µM | > 100 µM
